Results taken from patent US9771562B2, “Method for culture of human and mouse prostate organoids and uses thereof” (THE TRUSTEES OF COLUMBIA UNIVERSITY IN THE CITY OF NEW YORK, priority 2012, dated 2017).
Values joined by “and” are separate entries in the source; they are usually repeats but may differ in a detail not shown here. Identical values can stand only once. Like-named read-outs stand apart in the source and are kept apart here.

What was measured:
AR [1] = tested on: AR
Protocol: (§1) To examine the effects of androgen-deprivation, organoids established from normal prostate epithelium were cultured and passaged in the presence or absence of DHT. […] To assess the molecular response to androgen-deprivation, quantitative RT-PCR (qPCR) analysis of the expression of several known AR-regulated genes was performed at passage 1.

[2] = tested on: organoids established from normal prostate epithelium; details: absence of DHT versus presence of DHT, after passaging
Protocol: as §1

[3] = tested on: organoids from Nkx3.1^CreERT2/+; Pten^flox/flox; R26R-YFP/+ (NP) mice; experiment: Drug treatment of NP tumor organoids: efficiency of organoid formation; type: cell-based, mouse; details: 1 nM MK-8669; for Frequency (efficiency of organoid formation), Average: average of 3 wells; for Frequency (efficiency of organoid formation), Average / Total organoids counted / Frequency (efficiency of organoid formation): 1000 cells/well, 100 nM DHT control, or without DHT: 10 μM enzalutamide; for Total organoids counted / Frequency (efficiency of organoid formation): single wells, counted after 8 days; for Frequency (efficiency of organoid formation): third passage, embedded in Matrigel; for effect on organoid formation: treatment cultures without DHT, 10 μM enzalutamide
Protocol: Next it was determined whether tumor organoids could be utilized to assess drug response, using organoids from Nkx3.1^CreERT2/+; Pten^flox/flox; R26R-YFP/+ (NP) mice, which were previously used to analyze therapeutic response in vivo [48]. […] To assess therapeutic response, YFP-positive prostate cells were isolated from tamoxifen-induced NP mice for organoid culture, and subsequently dissociated organoids at the third passage to single cell suspensions, followed by plating at 1,000 cells/well embedded within Matrigel/culture medium. Control cultures were established in the presence of DHT, while treatment cultures were established without DHT.
For serial passaging experiments, organoids were passaged at a 1:4 dilution every 1-2 weeks with 0.25% trypsin for 5 minutes at 37° C., followed by mechanical dissociation to nearly single-cell suspensions. Organoids were frozen in complete media with 50% FBS and 10% DMSO. The efficiency of organoid formation was calculated by averaging the number of organoids visible in each well after 7 days of growth using a 10× objective. For statistical analyses, efficiency percentages were arcsin converted to perform unpaired two-tailed Student's t-tests.
The embedding method was used to culture organoids for drug treatment experiments. […] 40 μl of the resulting cell suspension containing 500-3,000 dissociated cells were mixed with 60 μl of Matrigel, and the mixture pipetted around the rim of wells in a 24 well plate. The mixture was allowed to solidify for 30 minutes at 37° C., prior to addition of 400 μl organoid culture medium to each well, with or without supplementation with 100 nm DHT in the presence or absence of drugs. The culture medium was changed every other day, and organoids were counted after 8 days. Drugs were dissolved in DMSO to generate a final concentration of 0.1% in all drug-treated groups. Drug concentrations were as follows: 100 nM DHT, no additions, 0.1% DMSO, 10 μM enzalutamide (provided by Charles Sawyers, Memorial Sloan-Kettering Cancer Center), 1 nM MK-8669 (provided by Cory Abate-Shen, Columbia University Medical Center).

AR [4] = details: NPK-CARN organoids
Text: In particular, Nkx3.1^CreERT2/+; Pten^flox/flox; Kras^LSL-G12D/+; R26R-YFP/+ mice (termed NPK) were castrated and induced with tamoxifen, so that combined Pten deletion, Kras^G12D activation, and YFP expression occurred specifically in CARNs (FIG. 33A). Transformed lineage-marked CARNs were isolated by flow cytometry on the basis of their YFP expression, and used for organoid culture.
For immunostaining, sections underwent antigen-retrieval by boiling in citrate acid-based antigen unmasking solution (Vector Labs) for 10 min. Primary antibodies were applied to sections and incubated at 4° C. overnight in a humidified chamber. Alexa Fluors (Life Technologies) were used for secondary antibodies. Tyramide amplification (Life Technologies) or ABC Elite (Vector Labs) kits were used for signal detection.

AR-regulated genes = details: after DHT withdrawal, passage 1
Protocol: as §1
For RNA extraction, 4-6 wells of organoids were pooled, pelleted, and dissolved in Trizol reagent prior to processing by the MagMAX 96 Total RNA Isolation Kit (Ambion, Life Technologies). 300-500 ng of RNA was used for cDNA synthesis using the Superscript First Strand Synthesis System (Invitrogen). Quantitative real-time PCR was carried out using SYBR green master mix reagent (QIAGEN) in the Realplex2 instrument (Eppendorf). cDNA samples were diluted 1:5 to 1:10 for all analyses, which were performed in triplicate. Expression values were obtained using the ΔΔCT method and normalized to GAPDH expression; average values are shown as the mean±standard deviation (SD).

Row | Compound | AR immunostaining (AR [1]; in the absence of DHT) | AR immunostaining (AR [1]; in the presence of DHT) | organoid size [2] | Frequency (efficiency of organoid formation), Average [3] [%] | Total organoids counted [3] | Frequency (efficiency of organoid formation) [3] | AR localisation (AR [4]; in the absence of DHT) | AR localisation (AR [4]; in the presence of DHT) | expression of Fkbp5, Mme, and Psca (AR-regulated genes) | expression of Igfbp3 (AR-regulated genes) | effect on organoid formation [3]
1 | C[C@]12CCC(=O)C[C@@H]1CC[C@@H]1[C@@H]2CC[C@]2(C)[C@@H](O)CC[C@@H]12 [DHT, dihydrotestosterone] | weaker and mostly cytoplasmic | nuclear | reduced in size | 17.4 | 166 and 194 and 162 | 16.6% and 19.4% and 16.2% | mostly cytoplasmic AR | nuclear AR | down-regulated | up-regulated | 
2 | CNC(=O)c1ccc(N2C(=S)N(c3ccc(C#N)c(C(F)(F)F)c3)C(=O)C2(C)C)cc1F [Enzalutamide, enzalutamide] |  |  |  | 14.9 | 134 and 163 and 150 | 13.4% and 16.3% and 15.0% |  |  |  |  | minimal effects
3 | CO[C@H]1C[C@@H]2CC[C@@H](C)[C@@](O)(O2)C(=O)C(=O)N2CCCC[C@H]2C(=O)O[C@H]([C@H](C)C[C@@H]2CC[C@@H](OP(C)(C)=O)[C@H](OC)C2)CC(=O)[C@H](C)/C=C(\C)[C@@H](O)[C@@H](OC)C(=O)[C@H](C)C[C@H](C)/C=C/C=C/C=C/1C [MK-8669, ridaforolimus] |  |  |  | 15.9 | 179 and 154 and 145 | 17.9% and 15.4% and 14.5% |  |  |  |  | minimal effects
